Source: paper PMC2206373, “Identification of an altered peptide ligand based on the endogenously presented, rheumatoid arthritis-associated, human cartilage glycoprotein-39(263–275) epitope: an MHC anchor variant peptide for immune modulation” (Arthritis Research & Therapy, 2007)
pIC50: −log10 of the molar value. Where two headings read alike, the source gives them in different places. No end group written: not given here.

Molecular target: HLA-DR4(B1*0401) (Homo sapiens, UniProt P01903+P01911, A100K/A169T/F76Y/I96L/K127E/L162R/M171V/N62H/P40V/Q125Y/R42H/S133A/S149N/S66Y/V115G/V209L/W38E)
Assay: HLA-DR4 competition peptide binding assay
Conditions: competition with biotinylated HA307-319 (Y309F) 50 nM, purified HLA-DR4 30 nM, pH 5, 48 h, room temperature
Description: HLA-DR bound marker peptide was separated from free marker peptide and the amount of bound marker peptide was detected and quantified by enhanced chemoluminescense. Inhibition curves were generated and the IC50 was determined. The concentration of competitor peptide inducing 50% inhibition of marker peptide binding was determined, and expressed as the 50% inhibitory concentration (IC50 in μM).

Sequence: RSFTLASSETGVG [Compound 1, HC gp-39(263–275)]
- pIC50 (Figure 1, read-out: DRB1*0401 binding IC50): 8.00
- pIC50 (Table 1, geometric mean of two experiments, read-out: HLA-DR binding IC50): 6.92
